Results reported in ChEMBL document CHEMBL1201862, “PubChem BioAssay data set” (2004).
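Each compound was tested at five concentrations against cells in 96-well plates for 48 hours. Abbreviation: GI50, concentration required for 50% inhibition of growth.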 The source made the active and inactive calls. Cut-off read from the data, not from the text of the source: active = GI50 up to about 1.1 µM and inactive = higher.

Tests used:
Assay in all cases: NCI anticancer screen, dose series, 48 h
[1] = system: HOP-92
[2] = system: SF-268
[3] = system: OVCAR-3
[4] = system: CAKI-1
[5] = system: PC-3
[6] = system: HCT-15
[7] = system: HT-29
[8] = system: SR
[9] = system: MOLT-4
[10] = system: RPMI-8226
[11] = system: OVCAR-8
[12] = system: HOP-62
[13] = system: HCT-116
[14] = system: OVCAR-4
[15] = system: MDA-MB-231
[16] = system: UO-31
[17] = system: SK-MEL-2
[18] = system: OVCAR-5
[19] = system: NCI-H460
[20] = system: RXF 393

Row | SMILES | GI50 [1] | GI50 [2] | GI50 [3] | GI50 [4] | GI50 [5] | GI50 [6] [µM] | GI50 [7] | GI50 [8] | GI50 [9] | GI50 [10] | GI50 [11] | GI50 [12] | GI50 [13] | GI50 [14] | GI50 [15] | GI50 [16] | GI50 [17] | GI50 [18] | GI50 [19] | GI50 [20]
1 | O=C(CC(O)(C(F)(F)F)C(F)(F)F)c1cccs1 | > 10 µM (inactive) | > 10 µM (inactive) | > 10 µM (inactive) | > 10 µM (inactive) | > 10 µM (inactive) | > 10 | > 10 µM (inactive) | > 10 µM (inactive) | > 10 µM (inactive) | > 10 µM (inactive) | > 10 µM (inactive) | > 10 µM (inactive) | > 10 µM (inactive) | > 10 µM (inactive) | > 10 µM (inactive) |  |  |  |  | 
2 | C=C(CCOC)CCC1CCCCC(=C)[C@H]1O (stereo partly drawn) | > 100 µM (inactive) | > 100 µM (inactive) | > 100 µM (inactive) | > 100 µM (inactive) | > 100 µM (inactive) | > 100 | > 100 µM (inactive) | > 100 µM (inactive) | > 100 µM (inactive) | > 100 µM (inactive) | > 100 µM (inactive) | > 100 µM (inactive) | > 100 µM (inactive) | > 100 µM (inactive) | > 100 µM (inactive) | > 100 µM (inactive) | > 100 µM (inactive) | > 100 µM (inactive) | > 100 µM (inactive) | 
3 | CCOC1(OCC)C2C=CC1C(COS(=O)(=O)c1ccc(C)cc1)C2COS(=O)(=O)c1ccc(C)cc1 (stereo not drawn) | 12.8 µM (inactive) | 19.6 µM (inactive) | 22.5 µM (inactive) |  | 11.6 µM (inactive) | 26 | 25.6 µM (inactive) | 1.12 µM (inactive) | 11.9 µM (inactive) |  | 40.9 µM (inactive) | 45.8 µM (inactive) | 21.5 µM (inactive) | 20.8 µM (inactive) | 22.1 µM (inactive) | 22.8 µM (inactive) | 28.7 µM (inactive) | 49.4 µM (inactive) | 35.5 µM (inactive) | 39.9 µM (inactive)
4 | COC(=O)C1=NN2c3ccccc3CN([C@@H](C)c3ccccc3)C(=O)[C@@H]2[C@H]1c1ccccc1 | > 100 µM (inactive) | > 100 µM (inactive) | > 100 µM (inactive) | > 100 µM (inactive) | 21.3 µM (inactive) | > 100 | > 100 µM (inactive) | 63 µM (inactive) | 5.66 µM (inactive) |  | > 100 µM (inactive) | > 100 µM (inactive) | > 100 µM (inactive) | > 100 µM (inactive) | > 100 µM (inactive) | > 100 µM (inactive) | > 100 µM (inactive) | > 100 µM (inactive) | > 100 µM (inactive) | > 100 µM (inactive)
5 | O=C1Nc2ccccc2/C1=N/Nc1c(F)c(F)c(F)c(F)c1F |  | 49.5 µM (inactive) | > 100 µM (inactive) | 30.8 µM (inactive) | > 100 µM (inactive) | 29.9 | 42.8 µM (inactive) | 3.48 µM (inactive) | 12 µM (inactive) | 3.83 µM (inactive) | 41.9 µM (inactive) | > 100 µM (inactive) | 47.8 µM (inactive) | 82 µM (inactive) | > 100 µM (inactive) | 17.1 µM (inactive) | > 100 µM (inactive) | > 100 µM (inactive) | 93.3 µM (inactive) | 53.8 µM (inactive)
6 | O=C1c2ccccc2-c2nc(-c3cccnc3)cc3c2c1nc1ccccc13 | > 100 µM (inactive) | > 100 µM (inactive) | 11.6 µM (inactive) | > 100 µM (inactive) | > 100 µM (inactive) | > 100 | > 100 µM (inactive) | 11.9 µM (inactive) | 23.6 µM (inactive) | 45.8 µM (inactive) | > 100 µM (inactive) | > 100 µM (inactive) | > 100 µM (inactive) | > 100 µM (inactive) | > 100 µM (inactive) | > 100 µM (inactive) | > 100 µM (inactive) | > 100 µM (inactive) | 22.8 µM (inactive) | 
7 | CC1CCCOc2ccc(cc2)/C=N\c2ccc(cc2)CCc2ccc(cc2)/N=C\c2ccc(cc2)OCCC1 | > 100 µM (inactive) | > 100 µM (inactive) | > 100 µM (inactive) | > 100 µM (inactive) | > 100 µM (inactive) | > 100 | > 100 µM (inactive) | > 100 µM (inactive) | > 100 µM (inactive) | > 100 µM (inactive) | > 100 µM (inactive) | > 100 µM (inactive) | > 100 µM (inactive) | > 100 µM (inactive) | > 100 µM (inactive) | > 100 µM (inactive) | > 100 µM (inactive) | > 100 µM (inactive) | > 100 µM (inactive) | 
8 | COc1ccc([N+](=O)[O-])c2c(NCC(O)CO)ccnc12 (stereo not drawn) |  | 35.9 µM (inactive) | 24.2 µM (inactive) | 52.6 µM (inactive) | 49.8 µM (inactive) | 16.1 | 31.7 µM (inactive) | 34.4 µM (inactive) | 38.9 µM (inactive) | 62.7 µM (inactive) | 50.4 µM (inactive) | 38.6 µM (inactive) | 28.9 µM (inactive) | 13.5 µM (inactive) | 88.1 µM (inactive) | 63.1 µM (inactive) | 23.1 µM (inactive) | > 100 µM (inactive) | 16.9 µM (inactive) | 28.1 µM (inactive)
9 | CC(C)(C)OC(=O)n1c(Cl)c(C=O)c2ccccc21 | 30.9 µM (inactive) | 17.9 µM (inactive) | 19.4 µM (inactive) | 17.2 µM (inactive) | 22 µM (inactive) | 27.1 | 30.5 µM (inactive) | 31.2 µM (inactive) | 51.8 µM (inactive) | 10.9 µM (inactive) | 28.1 µM (inactive) | 20.6 µM (inactive) |  | 36.6 µM (inactive) | 33.3 µM (inactive) | 19.1 µM (inactive) | 30.1 µM (inactive) | 35.5 µM (inactive) | 21.2 µM (inactive) | 
10 | CC1(C)N=C(N)N=C(N)N1c1ccc(OCC(=O)Nc2cccc(S(=O)(=O)F)c2)c(Cl)c1 | 2.25 µM (inactive) | 4.78 µM (inactive) | 18.5 µM (inactive) | 35.8 µM (inactive) | 1.54 µM (inactive) | 9.75 | 5.16 µM (inactive) | 2.85 µM (inactive) | 16.3 µM (inactive) | > 33.3 µM (inactive) | 5.82 µM (inactive) | 31 µM (inactive) | 12.6 µM (inactive) | > 100 µM (inactive) | > 31.6 µM (inactive) | 78.5 µM (inactive) | > 100 µM (inactive) | 7.91 µM (inactive) | 5.48 µM (inactive) | 
11 | Cc1ccc2c(c1)C(=O)/C(=C\c1ccccc1)CCS2(=O)=O | 12.9 µM (inactive) | 15.1 µM (inactive) | 13.1 µM (inactive) | 17.2 µM (inactive) | 10.4 µM (inactive) | 4.84 | 9.06 µM (inactive) | 2.92 µM (inactive) | 4.54 µM (inactive) |  | 11.6 µM (inactive) | 20.9 µM (inactive) | 6.43 µM (inactive) | 12 µM (inactive) | 12.7 µM (inactive) | 10.8 µM (inactive) | 18.6 µM (inactive) | 19 µM (inactive) | 9.12 µM (inactive) | 
12 | CCCCCCCCCCCCCCCCP(=O)(O)OP(=O)(O)OCC1OC(n2cnc3c(N)ncnc32)C(O)C1O (stereo not drawn) | 21.4 µM (inactive) | 30.3 µM (inactive) | 32.2 µM (inactive) | 28.7 µM (inactive) | 20.7 µM (inactive) | 23.8 | 20.3 µM (inactive) | 45.5 µM (inactive) | 17.3 µM (inactive) |  | 22 µM (inactive) | 19.5 µM (inactive) | 21.5 µM (inactive) | 36.3 µM (inactive) | 35.1 µM (inactive) | 15.8 µM (inactive) | 42.5 µM (inactive) | 15.5 µM (inactive) | 24.5 µM (inactive) | 
13 | COC(=O)C1=C(O)C(C(=O)OC)[C@@]2(O)[C@@H](C(=O)OC)C(c3ccc(OC(=O)/C=C/c4ccccc4)cc3)C[C@@H]1[C@@H]2C(=O)OC (stereo partly drawn) | 29.4 µM (inactive) | 9.79 µM (inactive) | 9.77 µM (inactive) | 7.36 µM (inactive) | 6.84 µM (inactive) | 3.89 | 3.66 µM (inactive) | 3.02 µM (inactive) | 2.61 µM (inactive) |  | 8.69 µM (inactive) | 23.8 µM (inactive) | 4.24 µM (inactive) | 6.18 µM (inactive) | 14.7 µM (inactive) | 10.6 µM (inactive) | 4.32 µM (inactive) | 12.1 µM (inactive) | 2.64 µM (inactive) | 3.06 µM (inactive)
14 | C=C(CN(C)C)C(=O)c1ccccc1[N+](=O)[O-] | 9.14 µM (inactive) | 27.2 µM (inactive) | 18.9 µM (inactive) | 14.2 µM (inactive) | 17.4 µM (inactive) | 10.8 | 19.2 µM (inactive) | 3.38 µM (inactive) |  |  | 20.2 µM (inactive) | 38.7 µM (inactive) | 17.3 µM (inactive) | 16.9 µM (inactive) | 18.2 µM (inactive) | 17.7 µM (inactive) | 18 µM (inactive) | 15.8 µM (inactive) | 34 µM (inactive) | 16.1 µM (inactive)
15 | COc1c2occc2cc2ccc(=O)oc12 [METHOXSALEN] | > 100 µM (inactive) |  | > 100 µM (inactive) | > 100 µM (inactive) | > 100 µM (inactive) | > 100 |  | 90.6 µM (inactive) | > 100 µM (inactive) | > 100 µM (inactive) |  | > 100 µM (inactive) | > 100 µM (inactive) | > 100 µM (inactive) | > 100 µM (inactive) | > 100 µM (inactive) | > 100 µM (inactive) | > 100 µM (inactive) | 62.7 µM (inactive) | 
